Data as given in US10239957B2, “Peptide containing conjugates for dual molecular delivery of oligonucleotides” (Merck Sharp & Dohme Corp., priority 2013, dated 2019).
Where no end group is shown, it is not given here. [ ]: non-standard residue; d: D form.

System: CTNNB1
Assay: In vitro DMD assay: mRNA silencing enhancement by peptide conjugates after siRNA-IV treatment
Format: cell-based
Details: primary mouse hepatocytes, siRNA-IV 125 nM baseline
Method: Cryopreserved primary Mouse hepatocytes (Bioreclamation, LLC) were placed into Collagen Type I coated 96-well plates at 25,000 cells per well in serum-containing InVitroGRO CP media (Bioreclamation, LLC) and allowed 5 hours to attach. Media was replaced with InVitroGRO HI media and cells were treated with siRNA-IV at 125 nM [siRNA] for 1 hour. Media was replaced with InVitroGRO HI media and cells were treated for approximately 16 hours with experimental Peptide conjugates at various concentrations to establish a dose-response curve. Peptide conjugates were washed out after 16 hours with InVitroGRO HI media and cells allowed to incubate for an additional 24 hours. Cells were then lysed and mRNA expression of the siRNA target was measured by RT-qPCR (Applied Biosystems Taqman reagents). mRNA silencing activity of each Peptide conjugate was expressed as an enhancement above the baseline activity of 125 nM siRNA-IV alone with respect to the untreated cells and all siRNA target Ct values were normalized to PPIB mRNA for each well (dddCt) and summarized.
The structure of TGN-S-S-peptide is shown below and the activity data is listed in Table 5 (siRNA-IV concentration was kept at […]).

Row | Substance | In vitro dddCt (vs. baseline SCE dose) (Targeted peptide dose 8 nM) | In vitro dddCt (vs. baseline SCE dose) (Targeted peptide dose 40 nM) | In vitro dddCt (vs. baseline SCE dose) (Targeted peptide dose 200 nM) | In vitro dddCt (vs. baseline SCE dose) (Targeted peptide dose 1000 nM) | In vitro dddCt (vs. baseline SCE dose) (Targeted peptide dose 5000 nM)
1 | TGN-S-S-SEQ ID NO: 1761 (D) ([dC]G[dL][dF]G[dE][dI][dE][dE][dL][dI][dE][dE]G[dL][dE][dN][dW][dI][dD][dW]G[dN]G; not fully specified (residue 1); also: disulfide to TGN peptide via Cys1; listed as Homo sapiens) | 0.08 | −0.25 | −0.22 | −0.07 | −0.11
2 | TGN-S-S-SEQ ID NO: 1762 (D) ([dC]G[dL][dF]G[dE][dI][dE][dE][dL][dI][dE][dE]G[dL][dE][dN][dF][dI][dD][dW]G[dN]G; not fully specified (residue 1); also: disulfide to TGN peptide via Cys1; listed as Homo sapiens) | −0.07 | 0.03 | −0.17 | −0.39 | −0.08
3 | TGN-S-S-SEQ ID NO: 1763 (D) ([dC]G[dL][dF]G[dE][dI][dE][dE][dL][dI][dE][dE]G[dL][dE][dN][dL][dW][dD][dW]G[dN]G; not fully specified (residue 1); also: disulfide to TGN peptide via Cys1; listed as Homo sapiens) | −0.13 | −0.67 | −1.26 | −1.44 | −1.29
4 | TGN-S-S-SEQ ID NO: 1764 (D) ([dC]G[dL][dF]G[dE][dI][dE][dE][dL][dI][dE][dE]G[dL][dE][dN][dL][dV][dD][dW]G[dN]G; not fully specified (residue 1); also: TGN conjugated via disulfide at Cys1; listed as Homo sapiens) | −0.03 | −0.41 | −0.78 | −0.62 | −0.75
5 | TGN-S-S-SEQ ID NO: 1765 (D) ([dC]G[dL][dF]G[dE][dI][dE][dE][dL][dI][dE][dE]G[dL][dE][dN][dL][dI][dE][dW]G[dN]G; not fully specified (residue 1); also: TGN conjugated via disulfide at Cys1; listed as Homo sapiens) | −0.04 | −0.38 | −0.88 | −1.23 | −1.23
6 | TGN-S-S-SEQ ID NO: 1772 (D) ([dC]G[dL][dF][dE][dA][dL][dL][dE][dL][dL][dE][dS][dL][dW][dE][dL][dL][dL][dE][dA]G[dY]G; not fully specified (residue 1); also: TGN conjugated via disulfide at Cys1; listed as Homo sapiens) | 0.03 | −0.15 | −0.15 | −0.17 | −0.08
7 | TGN-S-S-SEQ ID NO: 1775(D) ([dC]G[dL][dF][dE][dA][dL][dL][dE][dL][dL][dE][dS][dL][dW][dE][dL][dL][dL][dE][dA]; not fully specified (residue 1); also: TGN conjugated via disulfide at Cys1; listed as Homo sapiens) | −0.1 | −0.14 | −0.14 | −0.11 | −0.37
8 | TGN-S-S-SEQ ID NO: 1777 (D) ([dC]G[dN][dF]G[dE][dI][dE][dE][dL][dI][dE][dE]G[dL][dE][dN][dL][dI][dD][dW]G[dN]G; not fully specified (residue 1); also: TGN conjugated via disulfide at Cys1; listed as Homo sapiens) | −0.18 | 0.28 | −0.13 | −0.13 | 0.09
9 | TGN-S-S-SEQ ID NO: 1778 (D) ([dC]G[dL][dF][dA][dE][dI][dE][dE][dL][dI][dE][dE]G[dL][dE][dN][dL][dI][dD][dW]G[dN]G; not fully specified (residue 1); also: TGN conjugated via disulfide at Cys1; listed as Homo sapiens) | −0.38 | −0.57 | −0.91 | −1.54 | 
10 | TGN-S-S-SEQ ID NO: 1779(D) ([dC]G[dL][dF][dE][dE][dI][dE][dE][dL][dI][dE][dE]G[dL][dE][dN][dL][dI][dD][dW]G[dN]G; not fully specified (residue 1); also: TGN conjugated via disulfide at Cys1; listed as Homo sapiens) | −0.18 | −0.24 | −1.29 | −1.52 | −1.51
11 | TGN-S-S-SEQ ID NO: 1780 (D) ([dC]G[dL][dF]G[dE][dI][dA][dE][dL][dI][dE][dE]G[dL][dE][dN][dL][dI][dD][dW]G[dN]G; not fully specified (residue 1); also: TGN conjugated via disulfide at Cys1; listed as Homo sapiens) | −0.11 | −1.05 | −2.83 | 0.18 | −3.2
12 | TGN-S-S-SEQ ID NO: 1781 (D) ([dC][dE][dL][dF]G[dE][dI][dE][dE][dL][dI][dE][dE]G[dL][dE][dN][dL][dI][dD][dW]G[dN]G; not fully specified (residue 1); also: TGN conjugated via disulfide at Cys1; listed as Homo sapiens) | −0.01 | −0.02 | 0.03 | −0.01 | 0.01
13 | TGN-S-S-SEQ ID NO: 1782 (D) ([dC][dA][dL][dF]G[dE][dI][dE][dE][dL][dI][dE][dE]G[dL][dE][dN][dL][dI][dD][dW]G[dN]G; not fully specified (residue 1); also: TGN conjugated via disulfide at Cys1; listed as Homo sapiens) | −0.14 | 0.43 | −0.17 | −0.21 | 
14 | TGN-S-S-SEQ ID NO: 1784 (D) ([dC]G[dW][dF]G[dE][dI][dE][dE][dL][dI][dE][dE]G[dL][dE][dN][dL][dI][dD][dW]G[dN]G; not fully specified (residue 1); also: TGN conjugated via disulfide at Cys1; listed as Homo sapiens) | 0.07 | −0.22 | −0.57 | −1.01 | −0.81
15 | TGN-S-S-SEQ ID NO: 1785 (D) ([dC]G[dL][dF]G[dE][dL][dE][dE][dL][dI][dE][dE]G[dL][dE][dN][dL][dI][dD][dW]G[dN]G; not fully specified (residue 1); also: TGN conjugated via disulfide at Cys1; listed as Homo sapiens) | −0.1 | −0.44 | −1.68 | 0.84 | −2.03
16 | TGN-S-S-SEQ ID NO: 1786 (D) ([dC]G[dL][dF]G[dE][dI][dE][dE][dL][dW][dE][dE]G[dL][dE][dN][dL][dI][dD][dW]G[dN]G; not fully specified (residue 1); also: TGN conjugated via disulfide at Cys1; listed as Homo sapiens) | 0.17 | 0.13 | 0.06 | 0.06 | 0.18
17 | TGN-S-S-SEQ ID NO: 1793 (D) ([dC]G[dL][dL]G[dE][dI][dE][dE][dL][dI][dE][dE]G[dL][dE][dN][dL][dI][dD][dW]G[dN]G; not fully specified (residue 1); also: TGN conjugated via disulfide at Cys1; listed as Homo sapiens) | −0.02 | −1.04 | −2.36 | −2.75 | −2.65
